According to patent US4717713A, “Controlled release liquid pharmaceutical” (Research Corporation, priority 1983, dated 1988):

Assay: In vitro dissolution of theophylline from solutions/suspensions (U.S.P. paddle, simulated gastric fluid, 37° C.)
Type: physicochemical
Conditions: Table II; 50 R.P.M.; no polymers present
Experimental: Standard U.S.P. Teflon coated stainless steel paddles and round bottom glass beakers were employed. The desired stirrer speed was maintained by commercial feedback control circuitry (50 RPM is illustrated by way of example). The dissolution medium was 1000 ml of Simulated Gastric Fluid U.S.P. without enzyme in most cases, kept at 37° C. by a water bath with a heat/circulator unit.
Suspension was placed into the filled beaker near the surface by 0.27 cm inner radius glass tube attached by plastic tubing to a three ml disposable syringe. Two ml of suspension was pulled up into the tube, the exterior wiped clean, one ml was extruded into the dissolution medium beneath the surface, and the suspension separated from the glass tube by cutting with a razor blade. The technique produced uniform cylindrical matrices in most cases.
In all cases, the total amount of drug released into the dissolution medium was less than ten percent of that needed to saturate the medium, so that sink conditions were maintained.
A precise volume was withdrawn near the top of the dissolution medium for each sample. The volume ranged from 0.1 ml to 3.0 ml. […]
Standard curves were concentrated for theophylline in simulated gastric fluid USP. Samples were diluted to read within the linear concentration range and absorbance was read at 272 nm using a single beam spectrophotometer.

In the case of `Cn1c(=O)c2[nH]cnc2n(C)c1=O` [Theophylline Powder, theophylline], the “T 50% (time for 50% theophylline to dissolve)” value is reported as under 5 min.
